Measurements as given in patent publication US9567347B2, “Use of small molecule inhibitors targeting the interaction between RAC GTPase and p67(phox)” (CHILDREN'S HOSPITAL MEDICAL CENTER, priority 2012, dated 2017).

Experiments:
[1] = test system: dHL-60 cells; assay: stability in culture over time, DCFDA ROS assay; assay type: cell-based, human; conditions: 20 μM, 6 hr treatment window
Method: (A) Apoptosis analysis by FACS of HL-60 cells treated with compound or vehicle control for 2 hours prior to 7-AAD and Annexin V staining. (B) HL-60 cells from A were harvested and lysates were immunoblotted for levels of pPAK, and actin was used as a control for loading. (C) F-actin reorganization in freshly isolated fMLP-stimulated primary murine neutrophils was analyzed. […] Cells were exposed to a 10 μM dose of Phox-I1, Phox-I2, and Analog 13, and 200 nM nocodazole. (D) The effect of Phox-I on NOX4 mediated ROS production was tested in primary murine neutrophils transfected with a NOX4 expressing plasmid. 10 μM Phox-I1 was applied to the cells for 30 min prior to ROS assay by luminol chemiluminescence in the presence of HRP. The fMLP-stimulated ROS activity in the presence or absence of 10 uM Phox-I1 was measured in parallel. (E) The antioxidant abilities of these lead compounds were tested by prestimulating dHL-60 cells with fMLP for 30 minutes prior to treatment with Phox-I1 or Phox-I2. Levels of superoxide were analyzed by DCFDA assay and FACS. NAC, apocyanin, DPI, and NSC23766 treated cells served as controls. […]

[2] = target: T1, p67^phox recombinant protein (1-200) (Homo sapiens, UniProt P19878); assay: microscale thermophoresis binding to p67phox
T1 construct: using the pET30-HIS p67(1-212) plasmid; His; made in house; host or cells: E. coli BL21(DE3)
T1 sequence (P19878 1-212): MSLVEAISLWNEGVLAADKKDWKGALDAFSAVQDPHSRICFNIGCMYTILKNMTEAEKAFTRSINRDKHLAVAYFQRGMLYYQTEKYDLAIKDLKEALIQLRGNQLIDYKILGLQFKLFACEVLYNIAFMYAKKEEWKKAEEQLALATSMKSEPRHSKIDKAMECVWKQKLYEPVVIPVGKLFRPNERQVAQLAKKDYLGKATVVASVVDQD
Method: The p67^phox protein was expressed in BL21(DE3) bacteria (Stratagene) using the pET30-HIS p67(1-212) plasmid. Protein was purified using the QIAexpress Ni-NTA kit (Qiagen) or the GST Bind Resin Chromatography Kit (Novagen) for RacV12 and RacWT proteins. Mutagenesis was carried out using the Quick Change Lightening Site Directed Mutagenesis Kit (Stratagene).
Proteins were labeled for microscale thermophoresis using the Monolith NT Protein Labeling Kit Red (Nano Temper Technologies) as recommended by the manufacturer. Binding reactions were carried out using the Monolith NT. 115 (Nano Temper Technologies). Binding data was analyzed using Graphpad Prizm to estimate Kd values. The arbitrary fluorescence value from the thermophoresis plots for the smallest compound titration was subtracted from every other data point (Delta depletion) prior to normalization to a Vmax of 100. In thermophoresis plots where there was no binding, a curve could not be fit and therefore no Vmax could be assigned. In these instances the highest delta depletion value was set to 100 and all data were normalized accordingly.
To test the ability of compounds identified by preliminary screening to bind to the p67^phox protein in the N-terminal 200 amino acid region involved in Rac1-GTP interaction, microscale thermophoresis was employed. This technology probes for fluorescent changes in the hydration shell of molecules in order to measure protein-protein or protein small molecule interactions with high sensitivity in near-native conditions.

[3] = test system: dHL-60 cells; assay: antioxidant (ROS scavenger) test in dHL-60 cells pre-stimulated with fMLP; assay type: cell-based, human; conditions: fMLP 30 min prior to treatment
Method: (A) Apoptosis analysis by FACS of HL-60 cells treated with compound or vehicle control for 2 hours prior to 7-AAD and Annexin V staining. (B) HL-60 cells from A were harvested and lysates were immunoblotted for levels of pPAK, and actin was used as a control for loading. (C) F-actin reorganization in freshly isolated fMLP-stimulated primary murine neutrophils was analyzed. […] Cells were exposed to a 10 μM dose of Phox-I1, Phox-I2, and Analog 13, and 200 nM nocodazole. (D) The effect of Phox-I on NOX4 mediated ROS production was tested in primary murine neutrophils transfected with a NOX4 expressing plasmid. 10 μM Phox-I1 was applied to the cells for 30 min prior to ROS assay by luminol chemiluminescence in the presence of HRP. The fMLP-stimulated ROS activity in the presence or absence of 10 uM Phox-I1 was measured in parallel. (E) The antioxidant abilities of these lead compounds were tested by prestimulating dHL-60 cells with fMLP for 30 minutes prior to treatment with Phox-I1 or Phox-I2. Levels of superoxide were analyzed by DCFDA assay and FACS. NAC, apocyanin, DPI, and NSC23766 treated cells served as controls. […] (G) For stability assay, DMSO-differentiated HL-60 cells were treated with 20 μM dose of compound for the indicated time period prior to fMLP stimulation and DCFDA ROS production assay by FACS analysis.
Phox-I1 was then applied to primary murine neutrophils expressing the constitutively active NOX4. […] To further rule out that Phox-I1 and Phox-I2 may simply act as scavengers of ROS, dHL-60 cells were pre-stimulated with fMLP for 30 min prior to treatment with Phox-I1 or Phox-I2.

## COc1ccc2c(c1)C1C=C(c3ccccc3)NN1C(c1cccc([N+](=O)[O-])c1)O2 (stereo not shown) [Phox-I1]
[1]
  efficacy of ROS inhibition over time in culture: no significant change in efficacy
[2]
  Kd: ~100 nM
[3]
  levels of superoxide already produced: do not affect

## O=[N+]([O-])c1cccc(C2Nc3ccc([N+](=O)[O-])cc3C3C=CCC32)c1 (stereo not shown) [Phox-I2]
[1]
  efficacy of ROS inhibition over time in culture: retained some efficacies
[2]
  Kd: ~150 nM
  binding to p67^phox: high affinity
[3]
  levels of superoxide already produced: do not affect
